Active and inactive are the calls of the source. No cut-off for these calls is given here.
Tests used:
LX-2 [1] = test: Antifibrotic activity against TGFbeta-1 induced human LX-2 cells assessed as inhibition of ACTA2 mRNA expression at 1 uM incubated for 24 hrs by qRT-PCR analysis relative to control; assay type: functional; parameters: scale not given: the % may be the effect or the level left
Acinetobacter baumannii [2] = test: Antibacterial activity against Acinetobacter baumannii ATCC 19606 assessed as bacterial growth inhibition incubated for 16 hrs in presence of Muller-Hinton medium by broth microdilution method; assay type: functional, organism-based
LX-2 [3] = test: Antifibrotic activity against TGFbeta-1 induced human LX-2 cells assessed as inhibition of TGFB1 mRNA expression at 5 uM incubated for 24 hrs by qRT-PCR analysis relative to control; assay type: functional; parameters: scale not given: the % may be the effect or the level left
NIH3T3 [4] = test: Antifibrotic activity against TGFbeta-1 induced mouse NIH3T3 cells assessed as decrease in COL1A1 mRNA expression at 5 uM incubated for 24 hrs by qRT-PCR analysis relative to control; assay type: functional; parameters: scale not given: the % may be the effect or the level left
Klebsiella pneumoniae [5] = test: Antibacterial activity against Klebsiella pneumoniae ATCC 700603 assessed as bacterial growth inhibition incubated for 16 hrs in presence of Muller-Hinton medium by broth microdilution method; assay type: functional, organism-based
Acinetobacter baumannii [6] = test: Antibacterial activity against Acinetobacter baumannii 2799 assessed as bacterial growth inhibition incubated for 16 hrs in presence of Muller-Hinton medium by broth microdilution method; assay type: functional, organism-based
Pseudomonas aeruginosa [7] = test: Antibacterial activity against Pseudomonas aeruginosa ATCC 27853 assessed as bacterial growth inhibition incubated for 16 hrs in presence of Muller-Hinton medium by broth microdilution method; assay type: functional, organism-based
LX-2 [8] = test: Cytotoxicity against human LX-2 cells assessed as reduction in cell viability at 200 uM incubated for 24 hrs by CCK-8 assay; assay type: toxicity, cell-based; settings: lx-2, 24 h
LX-2 [9] = test: Antifibrotic activity against TGFbeta-1 induced human LX-2 cells assessed as inhibition of TGFB1 mRNA expression incubated for 24 hrs by qRT-PCR analysis; assay type: functional, cell-based; settings: dose 1-5 µM
Klebsiella pneumoniae [10] = test: Antibacterial activity against Klebsiella pneumoniae ATCC 10031 assessed as bacterial growth inhibition incubated for 16 hrs in presence of Muller-Hinton medium by broth microdilution method; assay type: functional, organism-based
NIH3T3 [11] = test: Antifibrotic activity against TGFbeta-1 induced mouse NIH3T3 cells assessed as decrease in Acta2 mRNA expression at 5 uM incubated for 24 hrs by qRT-PCR analysis relative to control; assay type: functional; parameters: scale not given: the % may be the effect or the level left
LX-2 [12] = test: Antifibrotic activity against TGFbeta-1 induced human LX-2 cells assessed as inhibition of TGFB1 mRNA expression at 1 uM incubated for 24 hrs by qRT-PCR analysis relative to control; assay type: functional; parameters: scale not given: the % may be the effect or the level left
Escherichia coli [13] = test: Antibacterial activity against Escherichia coli ATCC 25922 assessed as bacterial growth inhibition incubated for 16 hrs in presence of Muller-Hinton medium by broth microdilution method; assay type: functional, organism-based
LX-2 [14] = test: Antifibrotic activity against TGFbeta-1 induced human LX-2 cells assessed as inhibition of COL1A1 mRNA expression at 1 uM incubated for 24 hrs by qRT-PCR analysis relative to control; assay type: functional; parameters: scale not given: the % may be the effect or the level left
Enterococcus faecalis = test: Antibacterial activity against Enterococcus faecalis ATCC 33186 assessed as bacterial growth inhibition incubated for 16 hrs in presence of brain heart infusion medium by broth microdilution method; assay type: functional, organism-based
NIH3T3 [15] = test: Antifibrotic activity against TGFbeta-1 induced mouse NIH3T3 cells assessed as decrease in COL1A1 mRNA expression at 1 uM incubated for 24 hrs by qRT-PCR analysis relative to control; assay type: functional; parameters: scale not given: the % may be the effect or the level left
Escherichia coli [16] = test: Antibacterial activity against Escherichia coli ATCC 35218 assessed as bacterial growth inhibition incubated for 16 hrs in presence of Muller-Hinton medium by broth microdilution method; assay type: functional, organism-based
Bacillus subtilis = test: Antibacterial activity against Bacillus subtilis CPCC 100029 assessed as bacterial growth inhibition incubated for 16 hrs in presence of Muller-Hinton medium by broth microdilution method; assay type: functional, organism-based
LX-2 [17] = test: Antifibrotic activity against TGFbeta-1 induced human LX-2 cells assessed as inhibition of COL1A1 mRNA expression at 5 uM incubated for 24 hrs by qRT-PCR analysis relative to control; assay type: functional; parameters: scale not given: the % may be the effect or the level left
Pseudomonas aeruginosa [18] = test: Antibacterial activity against Pseudomonas aeruginosa 2774 assessed as bacterial growth inhibition incubated for 16 hrs in presence of Muller-Hinton medium by broth microdilution method; assay type: functional, organism-based
Enterococcus faecium = test: Antibacterial activity against Enterococcus faecium 310682 (VRE) assessed as bacterial growth inhibition incubated for 16 hrs in presence of brain heart infusion medium by broth microdilution method; assay type: functional, organism-based
LX-2 [19] = test: Antifibrotic activity against TGFbeta-1 induced human LX-2 cells assessed as inhibition of COL1A1 mRNA expression incubated for 24 hrs by qRT-PCR analysis; assay type: functional, cell-based; settings: dose 1-5 µM
LX-2 [20] = test: Antifibrotic activity against TGFbeta-1 induced human LX-2 cells assessed as inhibition of ACTA2 mRNA expression at 5 uM incubated for 24 hrs by qRT-PCR analysis relative to control; assay type: functional; parameters: scale not given: the % may be the effect or the level left
LX-2 [21] = test: Antifibrotic activity against TGFbeta-1 induced human LX-2 cells assessed as inhibition of ACTA2 mRNA expression incubated for 24 hrs by qRT-PCR analysis; assay type: functional, cell-based; settings: dose 1-5 µM
Staphylococcus aureus [22] = test: Antibacterial activity against Staphylococcus aureus ATCC 29213 assessed as bacterial growth inhibition incubated for 16 hrs in presence of Muller-Hinton medium by broth microdilution method; assay type: functional, organism-based
NIH3T3 [23] = test: Antifibrotic activity against TGFbeta-1 induced mouse NIH3T3 cells assessed as decrease in Acta2 mRNA expression at 1 uM incubated for 24 hrs by qRT-PCR analysis relative to control; assay type: functional; parameters: scale not given: the % may be the effect or the level left
[24] = target: T1, Polyunsaturated fatty acid 5-lipoxygenase (Homo sapiens) (UniProt P09917); test: Inhibition of human 5-LO at 2 uM incubated for 15 mins in presence of ATP by measuring fluorescence intensity relative to control
T1 sequence (whole entry): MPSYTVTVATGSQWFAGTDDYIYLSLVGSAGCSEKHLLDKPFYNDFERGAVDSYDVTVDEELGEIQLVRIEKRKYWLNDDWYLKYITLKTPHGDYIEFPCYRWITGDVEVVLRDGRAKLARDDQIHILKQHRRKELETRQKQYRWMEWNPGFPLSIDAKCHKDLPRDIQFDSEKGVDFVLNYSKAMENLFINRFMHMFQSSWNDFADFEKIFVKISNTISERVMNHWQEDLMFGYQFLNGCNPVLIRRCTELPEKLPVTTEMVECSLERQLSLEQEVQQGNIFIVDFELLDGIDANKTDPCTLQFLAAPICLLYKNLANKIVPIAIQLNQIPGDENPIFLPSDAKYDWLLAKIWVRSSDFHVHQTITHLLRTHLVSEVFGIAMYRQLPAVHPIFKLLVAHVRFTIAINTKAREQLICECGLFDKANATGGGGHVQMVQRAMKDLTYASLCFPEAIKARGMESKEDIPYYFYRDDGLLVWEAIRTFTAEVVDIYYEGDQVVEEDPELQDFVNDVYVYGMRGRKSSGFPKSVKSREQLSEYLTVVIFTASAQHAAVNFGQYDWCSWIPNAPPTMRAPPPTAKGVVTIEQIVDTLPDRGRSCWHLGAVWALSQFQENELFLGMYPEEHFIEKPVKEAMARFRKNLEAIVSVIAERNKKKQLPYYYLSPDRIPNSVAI

Staphylococcus aureus [25] = test: Antibacterial activity against Staphylococcus aureus ATCC 33591 assessed as bacterial growth inhibition incubated for 16 hrs in presence of Muller-Hinton medium by broth microdilution method; assay type: functional, organism-based

O=C(Cc1ccc(O)cc1)OC[C@H](CCCCNC(=O)c1cccc(O)c1O)NC(=O)c1cccc(O)c1O
Activity (LX-2 [1]): 61% | Activity (Acinetobacter baumannii [2]): inactive | Activity (LX-2 [3]): 81% | Activity (NIH3T3 [4]): 68% | Activity (Klebsiella pneumoniae [5]): inactive | Activity (Acinetobacter baumannii [6]): inactive | Activity (Pseudomonas aeruginosa [7]): inactive | Activity (LX-2 [8]): Non-toxic | Activity (LX-2 [9]): Dose-dependent-effect | Activity (Klebsiella pneumoniae [10]): inactive | Activity (NIH3T3 [11]): 119% | Activity (LX-2 [12]): 50% | Activity (Escherichia coli [13]): inactive | Activity (LX-2 [14]): 29% | Activity (Enterococcus faecalis): inactive | Activity (NIH3T3 [15]): 46% | Activity (Escherichia coli [16]): inactive | Activity (Bacillus subtilis): inactive | Activity (LX-2 [17]): 81% | Activity (Pseudomonas aeruginosa [18]): inactive | Activity (Enterococcus faecium): inactive | Activity (LX-2 [19]): Dose-dependent-effect | Activity (LX-2 [20]): 136% | Activity (LX-2 [21]): Dose-dependent-effect | Activity (Staphylococcus aureus [22]): inactive | Activity (NIH3T3 [23]): 80% | inhibition [24]: 77% | Activity (Staphylococcus aureus [25]): inactive

CC(C)C(=O)OC[C@H](CCCCNC(=O)c1cccc(O)c1O)NC(=O)c1cccc(O)c1O
Activity (LX-2 [1]): 92% | Activity (Acinetobacter baumannii [2]): inactive | Activity (LX-2 [3]): 72% | Activity (NIH3T3 [4]): 79% | Activity (Klebsiella pneumoniae [5]): inactive | Activity (Acinetobacter baumannii [6]): inactive | Activity (Pseudomonas aeruginosa [7]): inactive | Activity (LX-2 [8]): Non-toxic | Activity (LX-2 [9]): Dose-dependent-effect | Activity (Klebsiella pneumoniae [10]): inactive | Activity (NIH3T3 [11]): 122% | Activity (LX-2 [12]): 65% | Activity (Escherichia coli [13]): inactive | Activity (LX-2 [14]): 49% | Activity (Enterococcus faecalis): inactive | Activity (NIH3T3 [15]): 44% | Activity (Escherichia coli [16]): inactive | Activity (Bacillus subtilis): inactive | Activity (LX-2 [17]): 93% | Activity (Pseudomonas aeruginosa [18]): inactive | Activity (Enterococcus faecium): inactive | Activity (LX-2 [19]): Dose-dependent-effect | Activity (LX-2 [20]): 138% | Activity (LX-2 [21]): Dose-dependent-effect | Activity (Staphylococcus aureus [22]): inactive | Activity (NIH3T3 [23]): 75% | inhibition [24]: 80% | Activity (Staphylococcus aureus [25]): inactive

CCC(=O)OC[C@H](CCCCNC(=O)c1cccc(O)c1O)NC(=O)c1cccc(O)c1O
Activity (LX-2 [1]): 105% | Activity (Acinetobacter baumannii [2]): inactive | Activity (LX-2 [3]): 73% | Activity (NIH3T3 [4]): 81% | Activity (Klebsiella pneumoniae [5]): inactive | Activity (Acinetobacter baumannii [6]): inactive | Activity (Pseudomonas aeruginosa [7]): inactive | Activity (LX-2 [8]): Non-toxic | Activity (LX-2 [9]): Dose-dependent-effect | Activity (Klebsiella pneumoniae [10]): inactive | Activity (NIH3T3 [11]): 117% | Activity (LX-2 [12]): 57% | Activity (Escherichia coli [13]): inactive | Activity (LX-2 [14]): 50% | Activity (Enterococcus faecalis): inactive | Activity (NIH3T3 [15]): 35% | Activity (Escherichia coli [16]): inactive | Activity (Bacillus subtilis): inactive | Activity (LX-2 [17]): 92% | Activity (Pseudomonas aeruginosa [18]): inactive | Activity (Enterococcus faecium): inactive | Activity (LX-2 [19]): Dose-dependent-effect | Activity (LX-2 [20]): 139% | Activity (LX-2 [21]): Dose-dependent-effect | Activity (Staphylococcus aureus [22]): inactive | Activity (NIH3T3 [23]): 61% | inhibition [24]: 75% | Activity (Staphylococcus aureus [25]): inactive

O=C(Cc1ccccc1)OC[C@H](CCCCNC(=O)c1cccc(O)c1O)NC(=O)c1cccnc1
Activity (LX-2 [1]): 3.1% | Activity (Acinetobacter baumannii [2]): inactive | Activity (LX-2 [3]): 40% | Activity (NIH3T3 [4]): 31% | Activity (Klebsiella pneumoniae [5]): inactive | Activity (Acinetobacter baumannii [6]): inactive | Activity (Pseudomonas aeruginosa [7]): inactive | Activity (LX-2 [8]): Non-toxic | Activity (Klebsiella pneumoniae [10]): inactive | Activity (NIH3T3 [11]): 55% | Activity (LX-2 [12]): 15% | Activity (Escherichia coli [13]): inactive | Activity (LX-2 [14]): -3.5% | Activity (Enterococcus faecalis): inactive | Activity (NIH3T3 [15]): 7.6% | Activity (Escherichia coli [16]): inactive | Activity (Bacillus subtilis): inactive | Activity (LX-2 [17]): 29% | Activity (Pseudomonas aeruginosa [18]): inactive | Activity (Enterococcus faecium): inactive | Activity (LX-2 [20]): 68% | Activity (Staphylococcus aureus [22]): inactive | Activity (NIH3T3 [23]): 20% | inhibition [24]: 66% | Activity (Staphylococcus aureus [25]): inactive

From ChEMBL document CHEMBL6078652, “Discovery of Sporachelins by Genome Mining of a Micromonospora Strain” (J Nat Prod, 2024)
